Laboratory results taken from US20230212191A1, “SPIRO-SULFONIMIDAMIDE DERIVATIVES AS INHIBITORS OF MYELOID CELL LEUKEMIA-1 (MCL-1) PROTEIN” (PRELUDE THERAPEUTICS, INCORPORATED, priority 2020, published 2023).
Like-named read-outs stand apart in the source and are kept apart here.

Key:
MCL-1 = target: T1, MCL-1 (Homo sapiens, UniProt Q07820); test: Cell free Mcl-1:Bim affinity assay (fluorescence polarization competition); assay type: binding; conditions: 15 nM MCL-1, 5 nM FITC-Bim tracer, 1 hour at room temperature; Ki calc. from IC50 by Nikolovska-Coleska's equation; read-out: BIM_ Ki
T1 construct: purchased BPS Bioscience
Method: Cell Free Mcl-1:Bim Affinity Assay (Mcl-1 Bim)
The binding affinity of each compound was measured via a fluorescence polarization competition assay, in which the compound competes for the same binding site with the ligand, and thus leads to a dose-dependent anisotropy reduction. The tracer ligand utilized was a fluorescein isothiocyanate labelled peptide (FITC-[…]) derived from Bim (GenScript).
The assay was carried out in black half-area 96-well NBS plate (Corning), containing 15 nM of MCL-1 (BPS Bioscience), 5 nM of FITC-Bim and 3-fold serial diluted test compounds in a total volume of 50 μL of assay buffer (20 mM HEPES, 50 mM NaCl, 0.002% Tween 20, 1 mM TCEP, and 1% DMSO). The reaction plate was incubated for 1 hour at room temperature. The change of anisotropy is measured with an Envision multimode plate reader (PerkinElmer) at emission wavelength 535 nm. Fluorescence polarization was calc. in mP unit and the percentage inhibition was calc. by % inhibition=100×(mPDMSO−mP)/(mPDMSO−mPPC), in which mPDMSO is the DMSO control, and mPPC is the positive control. IC50 values were determined from a 10-point dose response curve by fitting the percent inhibition against compound concentration using the GraphPad Prism software. The inhibition constant Ki was subsequently calc. according to the Nikolovska-Coleska's equation (Anal. Biochem., 2004, 332, 261),
where [I]50 is the concentration of the free inhibitor at 50% inhibition, [L]50 is the concentration of the free labeled ligand at 50% inhibition, [P]0 is the concentration of the free protein at 0% inhibition, and Kd is the dissociation constant of the protein-ligand complex.

H929 cells = test: Cell viability assay (H929 10 FBS); assay type: cell-based; conditions: CellTiter-Glo or ATPlite, read-out: H929_10FBS IC50
Method: Cell Viability Assay (H929 10 FBS)
Dispense 10 μL aliquot of prepared H929 cells (1:1 ratio of cells:Trypan Blue (#1450013, Bio-Rad)) onto cell counting slide (#145-0011, Bio-Rad) and obtain cell density and cell viability using cell counter (TC20, Bio-Rad). Remove appropriate volume of resuspended cells from culture flask to accommodate 4000 cells/well @ 10 μL/well. Transfer H929 cells to 50 mL conical (#430290, Corning). Spin down at 1000 rpm for 5 min using tabletop centrifuge (SPINCHRON 15, Beckman). Discard supernatant and resuspend cell pellet in modified RPMI 1640 (#10-040-CV, Corning) cell culture media containing 10% FBS (F2422-500 ML, Sigma), sodium pyruvate (100 mM) (#25-000-CL, Corning), HEPES buffer (1 M) (#25-060-CL, Corning) and glucose (200 g/L) (A24940-01, Gibco) to a cell density of 400,000 cells/mL. Dispense 10 μL of resuspended H929 cells per well in 384-well small volume TC treated plate (#784080, Greiner Bio-one) using standard cassette (#50950372, Thermo Scientific) on Multi-drop Combi (#5840310, Thermo Scientific) in laminar flow cabinet. Dispense compounds onto plates using digital liquid dispenser (D300E, Tecan). Incubate plates in humidified tissue culture incubator @ 37° C. for 24 hours. Add 10 μL of prepared CellTiTer-Glo® detection buffer (G7570, Promega) or ATPlite 1Step detection reagent (#6016731, Perkin Elmer) to each well of 384-well plate using small tube cassette (#24073295, Thermo Scientific) on Combi multi drop, incubate @ RT for 30-60 min. Read plates with microplate reader (PheraStar, BMG Labtech) using 384 well luminescence mode.

T1 sequence (Q07820 whole entry): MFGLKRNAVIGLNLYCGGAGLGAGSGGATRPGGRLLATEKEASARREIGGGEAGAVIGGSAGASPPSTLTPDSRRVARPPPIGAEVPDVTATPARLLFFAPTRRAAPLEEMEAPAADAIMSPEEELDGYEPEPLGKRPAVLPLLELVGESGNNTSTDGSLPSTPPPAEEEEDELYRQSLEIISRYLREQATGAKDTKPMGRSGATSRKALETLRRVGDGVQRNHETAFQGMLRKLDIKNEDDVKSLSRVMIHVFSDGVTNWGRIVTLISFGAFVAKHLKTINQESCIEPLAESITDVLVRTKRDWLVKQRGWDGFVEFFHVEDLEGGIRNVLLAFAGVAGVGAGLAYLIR

Ki (MCL-1)	IC50 (H929 cells; 24 hours)	IC50 (H929 cells; Homo sapiens, NCI-H929, 24 h)	SMILES
< 1 nM			Cc1nn(C)cc1C(=O)NS1(=O)=NC(=O)C(C)(C)OC/C=C/[C@H](OC(=O)N(C)C)[C@@H]2CC[C@H]2CN2C[C@@]3(CCCc4cc(Cl)ccc43)COc3ccc1cc32 (stereo partly drawn) [Example 51, [(3R,6R,7S,8E,22S)-7′-Chloro-15-[(1,3-dimethylpyrazole-4-carbonyl)amino]-12,12-dimethyl-13,15-dioxospiro[11,20-dioxa-15-thia-1,14-diazatetracyclo[14.7.2.03,6.019,24]pentacosa-8,14,16,18,24-pentaene-22,4′-2,3-dihydro-1H-naphthalene]-7-yl] N,N-dimethylcarbamate]
> 1 nM	> 500 nM		COC1C=CCOC(C)(C)C(=O)N=S(=O)(NC(=O)N2CC(O)C2)c2ccc3c(c2)N(CC2CCC21)CC1(CCCc2cc(Cl)ccc21)CO3 (centres unmarked) [30 or 29]
< 1 nM		< 100 nM	CO[C@H]1/C=C/COC(C)(C)C(=O)N=S(=O)(NC(=O)c2cn(C)nc2C)c2ccc3c(c2)N(C[C@@H]2CC[C@H]21)C[C@@]1(CCCc2cc(Cl)ccc21)CO3 (stereo partly drawn) [Example 17, N-[(3R,6R,7S,8E,22S)-7′-chloro-7-methoxy-12,12-dimethyl-13,15-dioxospiro[11,20-dioxa-15-thia-1,14-diazatetracyclo[14.7.2.03,6.019,24]pentacosa-8,14,16,18,24-pentaene-22,4′-2,3-dihydro-1H-naphthalene]-15-yl]-1,3-dimethylpyrazole-4-carboxamide]
< 1 nM		< 100 nM	COC1CN(C(=O)NS2(=O)=NC(=O)C(C)(C)OCC=CC(OC)C3CCC3CN3CC4(CCCc5cc(Cl)ccc54)COc4ccc2cc43)C1 (centres unmarked) [31 or 32]
< 1 nM		< 100 nM	CCNC(=O)NS1(=O)=NC(=O)C(C)(C)OC/C=C/[C@H](OC)[C@@H]2CC[C@H]2CN2C[C@@]3(CCCc4cc(Cl)ccc43)COc3ccc1cc32 (stereo partly drawn) [Example 20, 1-[(3R,6R,7S,8E,22S)-7′-Chloro-7-methoxy-12,12-dimethyl-13,15-dioxospiro[11,20-dioxa-15-thia-1,14-diazatetracyclo[14.7.2.03,6.019,24]pentacosa-8,14,16,18,24-pentaene-22,4′-2,3-dihydro-1H-naphthalene]-15-yl]-3-ethylurea]
> 1 nM			CC(C)C(=O)NS1(=O)=NC(=O)C(C)(C)OC/C=C/[C@H](OCCN(C)C)[C@@H]2CC[C@H]2CN2C[C@@]3(CCCc4cc(Cl)ccc43)COc3ccc1cc32 (stereo partly drawn) [Example 55, N-[(3R,6R,7S,8E,22S)-7′-Chloro-7-[2-(dimethylamino)ethoxy]-12,12-dimethyl-13,15-dioxospiro[11,20-dioxa-15-thia-1,14-diazatetracyclo[14.7.2.03,6.019,24]pentacosa-8,14,16,18,24-pentaene-22,4′-2,3-dihydro-1H-naphthalene]-15-yl]-2-methylpropanamide]
< 1 nM			CC(C)C(=O)NS1(=O)=NC(=O)C(C)(C)OC/C=C/[C@H](OCCN2CCCC2)[C@@H]2CC[C@H]2CN2C[C@@]3(CCCc4cc(Cl)ccc43)COc3ccc1cc32 (stereo partly drawn) [Example 54, N-[(3R,6R,7S,8E,22S)-7′-Chloro-12,12-dimethyl-13,15-dioxo-7-(2-pyrrolidin-1-ylethoxy)spiro[11,20-dioxa-15-thia-1,14-diazatetracyclo[14.7.2.03,6.019,24]pentacosa-8,14,16,18,24-pentaene-22,4′-2,3-dihydro-1H-naphthalene]-15-yl]-2-methylpropanamide]

The next lines start with the molecule.

SMILES	Ki (MCL-1)	IC50 (H929 cells; 24 hours)	IC50 (H929 cells; Homo sapiens, NCI-H929, 24 h)
COc1nn(C)cc1C(=O)NS1(=O)=NC(=O)C(C)(C)OC/C=C/[C@H](OC)[C@@H]2CC[C@H]2CN2C[C@@]3(CCCc4cc(Cl)ccc43)COc3ccc1cc32 (stereo partly drawn) [Example 16, N-[(3R,6R,7S,8E,22S)-7′-Chloro-7-methoxy-12,12-dimethyl-13,15-dioxospiro[11,20-dioxa-15-thia-1,14-diazatetracyclo[14.7.2.03,6.019,24]pentacosa-8,14,16,18,24-pentaene-22,4′-2,3-dihydro-1H-naphthalene]-15-yl]-3-methoxy-1-methylpyrazole-4-carboxamide]	< 1 nM		< 100 nM
Cn1cc(C(=O)NS2(=O)=NC(=O)C(C)(C)OC/C=C/[C@H](O)[C@@H]3CC[C@H]3CN3C[C@@]4(CCCc5cc(Cl)ccc54)COc4ccc2cc43)cn1 (stereo partly drawn) [Example 52, N-[(3R,6R,7S,8E,22S)-7′-Chloro-7-hydroxy-12,12-dimethyl-13,15-dioxospiro[11,20-dioxa-15-thia-1,14-diazatetracyclo[14.7.2.03,6.019,24]pentacosa-8,14,16,18,24-pentaene-22,4′-2,3-dihydro-1H-naphthalene]-15-yl]-1-methylpyrazole-4-carboxamide]	> 1 nM		
CO[C@H]1/C=C/COC(C)(C)C(=O)N=S(=O)(NC(=O)c2cnn(C)c2)c2ccc3c(c2)N(C[C@@H]2CC[C@H]21)C[C@@]1(CCCc2cc(Cl)ccc21)CO3 (stereo partly drawn) [Example 15, N-[(3R,6R,7S,8E,22S)-7′-Chloro-7-methoxy-12,12-dimethyl-13,15-dioxospiro[11,20-dioxa-15-thia-1,14-diazatetracyclo[14.7.2.03,6.019,24]pentacosa-8,14,16,18,24-pentaene-22,4′-2,3-dihydro-1H-naphthalene]-15-yl]-1-methylpyrazole-4-carboxamide]	< 1 nM		< 100 nM
CN(C)C(=O)O[C@H]1/C=C/COC(C)(C)C(=O)N=S(=O)(NC(=O)c2cnn(C)c2)c2ccc3c(c2)N(C[C@@H]2CC[C@H]21)C[C@@]1(CCCc2cc(Cl)ccc21)CO3 (stereo partly drawn) [Example 53, [(3R,6R,7S,8E,22S)-7′-Chloro-12,12-dimethyl-15-[(1-methylpyrazole-4-carbonyl)amino]-13,15-dioxospiro[11,20-dioxa-15-thia-1,14-diazatetracyclo[14.7.2.03,6.019,24]pentacosa-8,14,16,18,24-pentaene-22,4′-2,3-dihydro-1H-naphthalene]-7-yl] N,N-dimethylcarbamate]	< 1 nM		
CO[C@H]1/C=C/COC(C)(C)C(=O)N=S(=O)(NC(=O)c2cc(C)n(C)n2)c2ccc3c(c2)N(C[C@@H]2CC[C@H]21)C[C@@]1(CCCc2cc(Cl)ccc21)CO3 (stereo partly drawn) [Example 19, N-[(3R,6R,7S,8E,22S)-7′-Chloro-7-methoxy-12,12-dimethyl-13,15-dioxospiro[11,20-dioxa-15-thia-1,14-diazatetracyclo[14.7.2.03,6.019,24]pentacosa-8,14,16,18,24-pentaene-22,4′-2,3-dihydro-1H-naphthalene]-15-yl]-1,5-dimethylpyrazole-3-carboxamide]	< 1 nM		
CO[C@H]1/C=C/COC(C)(C)C(=O)N=S(=O)(NC(=O)NC2CCOCC2)c2ccc3c(c2)N(C[C@@H]2CC[C@H]21)C[C@@]1(CCCc2cc(Cl)ccc21)CO3 (stereo partly drawn) [Example 38, 1-[(3R,6R,7S,8E,22S)-7′-Chloro-7-methoxy-12,12-dimethyl-13,15-dioxospiro[11,20-dioxa-15-thia-1,14-diazatetracyclo[14.7.2.03,6.019,24]pentacosa-8,14,16,18,24-pentaene-22,4′-2,3-dihydro-1H-naphthalene]-15-yl]-3-(oxan-4-yl)urea]	> 1 nM		
CO[C@H]1/C=C/COC(C)(C)C(=O)N=S(=O)(NC(=O)c2cnn(C)c2C)c2ccc3c(c2)N(C[C@@H]2CC[C@H]21)C[C@@]1(CCCc2cc(Cl)ccc21)CO3 (stereo partly drawn) [Example 18, N-[(3R,6R,7S,8E,22S)-7′-Chloro-7-methoxy-12,12-dimethyl-13,15-dioxospiro[11,20-dioxa-15-thia-1,14-diazatetracyclo[14.7.2.03,6.019,24]pentacosa-8,14,16,18,24-pentaene-22,4′-2,3-dihydro-1H-naphthalene]-15-yl]-1,5-dimethylpyrazole-4-carboxamide]	< 1 nM		
